The text below walks through data of PMC3722118, “Hellebrin and its aglycone form hellebrigenin display similar in vitro growth inhibitory effects in cancer cells and binding profiles to the alpha subunits of the Na^+/K^+-ATPase” (Molecular Cancer, 2013).

Read-outs that look alike come from different tables or passages of the source. Some results are limits rather than exact numbers.

In series [1] the test system is human cancer cells (A549, U373, Hs683, T98G, MCF-7, SKMEL-28, PC-3, HT-29). Put plainly: MTT growth inhibition, mean over the eight human cancer cell lines. The format is cell-based. As to conditions: read-out: IC50 (nM) Mean ± SEM. In outline: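 Culture: RPMI medium, 10% heat-inactivated fetal calf serum, 4 mM glutamine, antibiotics. Then compound exposure, MTT addition, and spectrophotometric reading of formazan. Growth inhibition is derived from OD of treated relative to control cells.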

Series [2] deals with T1, human α2β1 NaK complex (Homo sapiens, UniProt P50993).
T1 construct: made in house; host or cells: Pichia pastoris strain SMD1165 (membranes)
Put plainly: 3H-ouabain competitive displacement on P. pastoris membranes. The format is binding. To be noted: for Kd: 3H-ouabain displacement, three independent experiments, read-out: Affinity (nM) α-2 (KD ± SEM); for Selectivity α-1 / α-2: ratio of KD α-1 to KD α-2. As to the method:
(§1) K0.5 was calculated using a one site inhibition model: B/BCG=0 = K0.5/([CG] + K0.5). […] Binding of each cardiac glycoside was estimated in 3 separate experiments.
(§2) Average KD or Ki values ± SEM for each isoform were calculated. Statistical significance was calculated by the unpaired Students t-test. P values <0.05 were considered significant.

Series [3] has as its target T2, human α1β1 NaK complex (Homo sapiens, UniProt P05023).
T2 construct: made in house; host or cells: Pichia pastoris strain SMD1165 (membranes)
The series is described as above. The format is binding. To be noted: for Kd: 3H-ouabain displacement, three independent experiments, read-out: Affinity (nM) α-1 (KD ± SEM); for fold higher affinity for α1 than for the α2 and α3 subunits: from Table 2 KD values. As to the method:
as §1, §2

The target of series [4] is T3, human α3β1 NaK complex (Homo sapiens, UniProt P13637).
T3 construct: made in house; host or cells: Pichia pastoris strain SMD1165 (membranes)
The description is as above. The format is binding. As to conditions: for Kd: 3H-ouabain displacement, three independent experiments, read-out: Affinity (nM) α-3 (KD ± SEM); for Selectivity α-1 / α-3: ratio of KD α-1 to KD α-3. As to the method:
as §1, §2

In series [5] the test system is NHDF fibroblasts. Put plainly: MTT growth inhibition in non-cancerous control cell line. It is filed as cell-based. To be noted: normal human fibroblasts, read-out: in vitro growth inhibitory effects (IC50) in NHDF fibroblasts. The source says: The histological types and origins of the eight human cancer cell lines that were used for the MTT colorimetric assay are detailed in the legend of Table 1. Two mouse cancer cell lines were also used, the CT26.WT colon cancer cell line (ATCC code CRL-2638) and the B16F10 melanoma cell line (ATCC code CRL-6475). Both cell lines were obtained from the American Type Culture Collection (ATCC, Manassas, VA). A control cell line (human NHDF fibroblasts) was obtained from PromoCell (code c-12300; Heidelberg, Germany). The cell lines detailed in Figure 2A are a generous gift from the National Cancer Institute (NCI, Bethesda, USA) to Steven Karlish’s lab.
The cancer cells were cultured in RPMI (Lonza, Verviers, Belgium) medium supplemented with 10% heat-inactivated fetal calf serum (Lonza). All culture media were supplemented with 4 mM glutamine, 100 μg/mL gentamicin, 200 U/mL penicillin and 200 μg/mL streptomycin (Lonza). The NHDF fibroblasts were cultured in Lonza medium cc3132 KT FGM-2 BulletKit.
The overall growth level of the human cancer cell lines was determined using a colorimetric MTT (3-(4,5-dimethylthiazol-2yl)-2,5-diphenyltetrazolium bromide, Sigma, Belgium) assay as detailed previously. Briefly, this test measures the number of metabolically active (thus living) cells that are able to transform the yellow MTT into the blue formazan dye via a mitochondrial reduction involving succinate dehydrogenase. The amount of formazan obtained at the end of the experiment (measured by spectrophotometry) is directly proportional to the number of living cells. The determination of the optical density in the control compared to the treated cells therefore enables quantitative measurements of the effects of compounds on the growth of normal as well as cancer cells in vitro.
Each experimental condition was performed in six replicates.

Series [6] relates to U373 GBM cells. To be noted: 10 nM. As to the method:
Computer-assisted phase contrast microscopy (quantitative videomicroscopy) analyses were used to morphologically visualize the effects induced by hellebrin (data not shown) and hellebrigenin (Figure 5) in human U373 GBM cells.
Figure 5 Computer-assisted phase-contrast microscopy (quantitative videomicroscopy) illustrations of human U373 glioblastoma cells treated with 10 nM hellebrigenin for 72 h. […] Cells were not starved during the experiments. The images provided here are representative images obtained from triplicates in each experimental condition.

The test system of series [7] is KB-3-1 and ABCB1-overexpressing KB-C-1 cells. The experiment in a line: MTT viability, MDR model. It is filed as cell-based, human. As to conditions: 72 hours. From the text: (§3) The following human cancer cell lines and their chemoresistant sublines were used in this study: the colon carcinoma cell line HCT-116 p53/wt and the p53 knock-out cell line HCT-116 p53/ko (generously donated by B. Vogelstein, Johns Hopkins University, Baltimore, MD, USA); the epidermal carcinoma-derived cell line KB-3-1 and the ABCB1-overexpressing subline KB-C-1 (generously donated by D.W. Shen, Bethesda, USA); the small cell lung carcinoma cell line GLC-4 and the ABCC1- and LRP-overexpressing subline GLC-4/ADR (from E.G. de Vries, Groningen, Netherlands); the ovarian carcinoma cell line A2780 and the cisplatin resistant subline A2780cis (purchased from Sigma-Aldrich); and the promyelocytic leukemia cell line HL60 and the mitoxantrone resistant subline HL60/mx (generously donated by G. Harker, Salt Lake City, USA). All cell lines were grown in RPMI 1640 supplemented with 10% fetal bovine serum with the exception of the HCT-116 cells, which were grown in McCoy’s medium with 10% serum.
(§4) Figure 4 Impact of different MDR mechanisms on the cytotoxicity of hellebrigenin. […] Viability was determined using a 3-(4,5-dimethythiazol-2-yl)-2,5-diphenyltetrazolium bromide (MTT) colorimetric assay. […]

Series [8] deals with GLC-4 and ABCC1- and LRP-overexpressing GLC-4/ADR small cell lung carcinoma cells. The experiment in a line: MTT viability, MDR model. It is filed as cell-based, human. As to conditions: 72 hours.
Source text: as §3, §4

Take `C[C@@H]1O[C@@H](O[C@H]2CC[C@]3(C=O)[C@H]4CC[C@]5(C)[C@@H](c6ccc(=O)oc6)CC[C@]5(O)[C@@H]4CC[C@]3(O)C2)[C@H](O)[C@H](O)[C@H]1O[C@@H]1O[C@H](CO)[C@@H](O)[C@H](O)[C@H]1O` [Hellebrin]: the IC50 (commonly the concentration that gives 50% inhibition) in series [1] (Homo sapiens, 72 h) turned out to be 28 ± 7 nM. Moreover, in series [2], the Kd (in general, the concentration at which binding is half-saturated) amounted to 218 ± 52 nM and the “Selectivity α-1 / α-2” value is on record as 0.4. In series [3], the Kd amounted to 86 ± 18 nM; the “fold higher affinity for α1 than for the α2 and α3 subunits” value is reported as ~ 2 fold. In addition, in series [4], the dissociation constant Kd was 175 ± 20 nM and the “Selectivity α-1 / α-3” value worked out at 0.5. Besides, the half-maximal inhibitory concentration (IC50) in series [5] (NHDF) is over 10000 nM.

For the compound `C[C@]12CC[C@H]3[C@@H](CC[C@]4(O)C[C@@H](O)CC[C@]34C=O)[C@@]1(O)CC[C@@H]2c1ccc(=O)oc1` [Hellebrigenin], the IC50 in series [1] (mean over eight human cancer cell lines, three days of culture) came to 16 ± 5 nM. In addition, in series [2], the Kd came out at 198 ± 51 nM and the “Selectivity α-1 / α-2” value was determined as 0.5. Further, in series [3], the Kd turned out to be 103 ± 19 nM; the “fold higher affinity for α1 than for the α2 and α3 subunits” value is reported as ~ 2 fold. Also, in series [4], the dissociation constant Kd is 191 ± 23 nM and the “Selectivity α-1 / α-3” value was 0.5. In series [5], the concentration for half-maximal inhibition (IC50) is over 10000 nM. The “U373 GBM cells died” value in series [6] (72 h of treatment) is “approximately 50%”. Besides, the “cytotoxic versus cytostatic nature (morphological analyses)” value in series [6] (up to 72 h) was “cytotoxic compound and not a cytostatic one”. Also, in series [7], the “sensitivity of KB-C-1 compared to parental cell line” value is given as “equally sensitive”. Also, the “sensitivity of GLC4/ADR compared to parental cell line” value in series [8] is “equally sensitive”.
